From BigSolDB 2.1

Cc1ccc(Nc2nccc(N(C)c3ccc4c(C)n(C)nc4c3)n2)cc1S(N)(=O)=O
solubility (mole fraction)
Settings	288.15 K	293.15 K	298.15 K	303.15 K	308.15 K	313.15 K	318.15 K	323.15 K	328.15 K
in acetonitrile	1.08e-06	3.07e-06	5.16e-06	7.86e-06	1.11e-05	1.44e-05	1.8e-05	2.21e-05	2.72e-05
in n-butanol	1.07e-05	1.46e-05	1.88e-05	2.34e-05	2.86e-05	3.42e-05	4.04e-05	4.7e-05	5.43e-05
in n-propanol	9.96e-06	1.33e-05	1.67e-05	2.09e-05	2.55e-05	3.1e-05	3.65e-05	4.39e-05	5.11e-05
